Measured values reported in the supplement of paper PMC10307832.

Columns and labels:
Experiment in all cases: relative viability (nuclei count vs DMSO), 5 days (fraction); higher = more cells survive
IPA-3 + Palbociclib = compound: C1=CC=C2C(=C1)C=CC(=C2SSC3=C(C=CC4=CC=CC=C43)O)O [IPA-3] + CC(=O)c1c(C)c2cnc(Nc3ccc(N4CCNCC4)cn3)nc2n(C2CCCC2)c1=O [Palbociclib] (partner 0.5 µM)
In short: (§1)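 Lung cancer cell lines, seeded in 1536-well plates, were treated the following day by pin tool with a single drug or with five library-drug doses (not always all listed) in √10 steps on top of a fixed anchor-drug dose. Cells were fixed and nuclei stained in one step after 5 days, and nuclei were counted. Relative viability is the nuclei count for treated wells divided by that for vehicle wells, reported as medians of duplicate plates.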

Doramapimod + Trametinib = compound: Cc1ccc(-n2nc(C(C)(C)C)cc2NC(=O)Nc2ccc(OCCN3CCOCC3)c3ccccc23)cc1 [Doramapimod] + CC(=O)Nc1cccc(-n2c(=O)n(C3CC3)c(=O)c3c(Nc4ccc(I)cc4F)n(C)c(=O)c(C)c32)c1 [Trametinib] (partner 0.02 µM)
In short: as §1

Doramapimod + Alpelisib = compound: Cc1ccc(-n2nc(C(C)(C)C)cc2NC(=O)Nc2ccc(OCCN3CCOCC3)c3ccccc23)cc1 [Doramapimod] + Cc1nc(NC(=O)N2CCC[C@H]2C(N)=O)sc1-c1ccnc(C(C)(C)C(F)(F)F)c1 [Alpelisib] (partner 2 µM)
In short: as §1

RAF265 + Luminespib = compound: Cn1c(Nc2ccc(C(F)(F)F)cc2)nc2cc(Oc3ccnc(-c4ncc(C(F)(F)F)[nH]4)c3)ccc21 [RAF265] + CCNC(=O)c1noc(-c2cc(C(C)C)c(O)cc2O)c1-c1ccc(CN2CCOCC2)cc1 [Luminespib] (partner 0.01 µM)
In short: as §1

Cell Line | relative viability (IPA-3 + Palbociclib; first compound 0.2 µM) | relative viability (IPA-3 + Palbociclib; first compound 0.6325 µM) | relative viability (IPA-3 + Palbociclib; first compound 2 µM) | relative viability (IPA-3 + Palbociclib; first compound 6.325 µM) | relative viability (IPA-3 + Palbociclib; first compound 20 µM) | relative viability (Doramapimod + Trametinib; first compound 0.02 µM) | relative viability (Doramapimod + Trametinib; first compound 0.06325 µM) | relative viability (Doramapimod + Trametinib; first compound 0.2 µM) | relative viability (Doramapimod + Trametinib; first compound 0.6325 µM) | relative viability (Doramapimod + Trametinib; first compound 2 µM) | relative viability (Doramapimod + Alpelisib; first compound 0.02 µM) | relative viability (Doramapimod + Alpelisib; first compound 0.06325 µM) | relative viability (Doramapimod + Alpelisib; first compound 0.2 µM) | relative viability (Doramapimod + Alpelisib; first compound 0.6325 µM) | relative viability (Doramapimod + Alpelisib; first compound 2 µM) | relative viability (RAF265 + Luminespib; first compound 0.01 µM) | relative viability (RAF265 + Luminespib; first compound 0.03162 µM) | relative viability (RAF265 + Luminespib; first compound 0.1 µM) | relative viability (RAF265 + Luminespib; first compound 0.3162 µM) | relative viability (RAF265 + Luminespib; first compound 1 µM)
SK-LU-1 | 0.446 | 0.341 | 0.374 | 0.401 | 0.411 | 0.469 | 0.593 | 0.588 | 0.624 | 0.555 | 0.901 | 0.925 | 1.14 | 1.19 | 0.866 | 0.203 | 0.182 | 0.177 | 0.185 | 0.176
LOU-NH91 | 0.535 | 0.525 | 0.552 | 0.511 | 0.572 | 0.802 | 0.771 | 0.761 | 0.767 | 0.678 | 0.794 | 0.728 | 0.728 | 0.893 | 0.574 | 0.349 | 0.323 | 0.373 | 0.349 | 0.328
LXF-289 | 0.606 | 0.579 | 0.556 | 0.568 | 0.642 | 0.684 | 0.647 | 0.676 | 0.665 | 0.657 | 1.03 | 0.992 | 1.01 | 1.02 | 0.956 | 0.736 | 0.6 | 0.699 | 0.534 | 0.357
NCI-H1299 |  |  |  |  |  |  |  |  |  |  | 1.12 | 1.13 | 1.1 | 1.1 | 1.01 |  |  |  |  | 
HARA | 0.255 | 0.24 | 0.255 | 0.27 | 0.235 | 0.634 | 0.414 | 0.749 | 0.602 | 0.5 | 0.807 | 0.762 | 0.742 | 0.846 | 0.598 | 0.64 | 0.627 | 0.476 | 0.509 | 0.165
